What was measured:
HepG2/Gal* cells = assay: Cytotoxicity (CC50) in HepG2/Gal* cells; assay type: cell-based; conditions: Human
[1] = Ferret plasma PK, single dose; assay type: in vivo; conditions: ferrets; for AUC(0-inf) / Cmax / Tmax / half-life: plasma
HBTECs = assay: Cytotoxicity (CC50) in HBTECs; assay type: cell-based; conditions: Human, Respiratory Tract
BEAS-28/Gal* cells = assay: Cytotoxicity (CC50) in BEAS-28/Gal* cells; assay type: cell-based; conditions: Human, Lung
[2] = Mouse plasma PK, single dose; conditions: for AUC-INF/Dose / Cmax/Dose: CD-1 mice; for AUC(0-inf) / Cmax / half-life / Tmax: female, ICR (CD-1), mouse, plasma, po
Junin virus = assay: microbe, parasite or virus in culture; assay type: cell-based; conditions: Mammarenavirus juninense
A549 cells = assay: Cytotoxicity (CC50) in A549 cells; assay type: cell-based; conditions: A549, Human, Lung
MDCK cells = assay: Cytotoxicity (CC50) in MDCK cells; assay type: cell-based; conditions: Canine, Kidney, n = 6
Lassa fever virus = assay: organism not typed; assay type: cell-based
Measles = Measles antiviral assay; assay type: cell-based, measles virus; conditions: Measles morbillivirus; strain CC; Vero 76 cells
BxPC-3 cells = assay: Cytotoxicity (CC50) in BxPC-3 cells; assay type: cell-based; conditions: BxPC-3, Human, Pancreas
A-204 cells = assay: Cytotoxicity (CC50) in A-204 cells; assay type: cell-based; conditions: A204, Human, Muscle
RD cells = assay: Cytotoxicity (CC50) in RD cells; assay type: cell-based, Human; conditions: RD, Human, Muscle
[3] = Cytotoxicity (CC50) in RD cells; assay type: cell-based, Human; conditions: human, RD cells, alongside antiviral assays
[4] = Guinea pig plasma PK, single dose; assay type: in vivo; conditions: Guinea pigs
Mayaro = Mayaro antiviral assay; assay type: cell-based; conditions: strain BEAR 505411; Vero 76 cells
BEAS-28 cells = assay: Cytotoxicity (CC50) in BEAS-28 cells; assay type: cell-based; conditions: BEAS-28, Human, Lung
Lujo = assay: microbe, parasite or virus in culture; assay type: cell-based, Lujo virus; conditions: Mammarenavirus lujoense
Vero cells = conditions: green monkey
Machupo = assay: microbe, parasite or virus in culture; assay type: cell-based, Machupo virus; conditions: Mammarenavirus machupoense
RAW264.7 cells = assay: Cytotoxicity (CC50) in RAW264.7 cells; assay type: cell-based; conditions: RAW 264.7, Mouse, Macrophage
Enterovirus-68 = Enterovirus-68 antiviral assay; assay type: cell-based; conditions: strain US/KY/14-18953; RD cells
EEEV = assay: microbe, parasite or virus in culture; assay type: cell-based; conditions: Eastern equine encephalitis virus, Vero 76
IEC-6 cells = assay: Cytotoxicity (CC50) in IEC-6 cells; assay type: cell-based; conditions: IEC-6, Rat, Small intestine
Poliovirus = assay: microbe, parasite or virus in culture; assay type: cell-based; conditions: Enterovirus C, Vero 76
CEM cells = assay: Cytotoxicity (CC50) in CEM cells; assay type: cell-based; conditions: Human, Lymphoid
Huh-7 cells = assay: Cytotoxicity (CC50) in Huh-7 cells; assay type: cell-based; conditions: Huh7, Human, Liver, n = 3
BHK-T7 cells = assay: Cytotoxicity (CC50) in BHK-T7 cells; assay type: cell-based; conditions: BHK-T7, Hamster, Kidney
MA-104 cells = assay: Cytotoxicity (CC50) in MA-104 cells; assay type: cell-based; conditions: MA-104, Monkey, Kidney, n = 2
[5] = Cytotoxicity (CC50) in HeLa cells; assay type: cell-based; conditions: human, alongside antiviral assays
MDCK/Gal* cells = assay: Cytotoxicity (CC50) in MDCK/Gal* cells; assay type: cell-based; conditions: Canine, Kidney
H9c2 cells = assay: Cytotoxicity (CC50) in H9c2 cells; assay type: cell-based; conditions: H9c2, Rat, Heart
Pichinde virus = assay type: cell-based
HG23 cells = assay: Cytotoxicity (CC50) in HG23 cells; assay type: cell-based; conditions: HG23, Human
in vitro = conditions: human
SARS-CoV-2 = assay: microbe, parasite or virus in culture; assay type: cell-based; conditions: Severe acute respiratory syndrome coronavirus 2, Calu-3
MERS = assay: microbe, parasite or virus in culture; assay type: cell-based, Middle East Respiratory Syndrome coronavirus
SARS = assay: microbe, parasite or virus in culture; assay type: cell-based, SARS coronavirus; conditions: Severe acute respiratory syndrome coronavirus, Vero 76
HCoV-alpha 229E = HCoV-alpha 229E antiviral assay; assay type: cell-based, HCoV-229E; conditions: Human coronavirus 229E; strain 229E; Huh-7 cells
HCoV-beta OC43 = HCoV-beta OC43 antiviral assay; assay type: cell-based; conditions: Betacoronavirus 1; strain OC43; RD cells
[6] = Liver microsome stability, mouse; conditions: mouse liver microsomes, drug 1.00 μM
[7] = Liver microsome stability, human; conditions: human liver microsomes, drug 1.00 μM
Plasma stability, rat = conditions: drug 1.00 μM
[8] = Liver microsome stability, rat; conditions: rat liver microsomes, drug 1.00 μM
Plasma stability, human = conditions: drug 1.00 μM
Plasma stability, mouse = conditions: drug 1.00 μM
[9] = guinea pig, 50 mg/kg PO, plasma

## O=c1ccn([C@@H]2O[C@](F)(CO)[C@@H](O)[C@H]2O)c(=O)[nH]1 [EIDD-02749, 1-[(2R, 3R, 4S, 5S)-5-fluoro-3,4-dihydroxy-5-(hydroxymethyl)tetrahydrofuran-2-yl]pyrimidine-2,4-dione]
HepG2/Gal* cells
  CC: >400 µM
[1]; 15 mg/kg PO
  AUC-INF/Dose: 2691.2 ± 483.7 h*kg*nmol/mL/mmol
  Cmax/Dose: 608.2 ± 114.0 kg*nmol/mL/mmol
  AUC(0-inf): 154 ± 27.6 µM·h
  Cmax: 34.8 ± 6.5 µM
  Tmax: 1 h
  half-life: 5.97 ± 0.35 h
[1]; 50 mg/kg PO
  AUC-INF/Dose: 2166.1 ± 409.8 h*kg*nmol/mL/mmol
  Cmax/Dose: 332.0 ± 57.5 kg*nmol/mL/mmol
  AUC(0-inf): 413 ± 78.1 µM·h
  Cmax: 63.3 ± 10.9 µM
  Tmax: 2.3 ± 1.5 h
  half-life: 4.3 ± 0.8 h
HBTECs
  CC: >500 µM
BEAS-28/Gal* cells
  CC: 250 µM
[2]; 10 mg/kg IP
  AUC-INF/Dose: 514.5 h*kg*nmol/mL/mmol
  Cmax/Dose: 202.1 kg*nmol/mL/mmol
[2]; 50 mg/kg PO
  AUC-INF/Dose: 1215.0 h*kg*nmol/mL/mmol
  Cmax/Dose: 184.3 kg*nmol/mL/mmol
[2]; 150 mg/kg PO
  AUC-INF/Dose: 685.8 h*kg*nmol/mL/mmol
  Cmax/Dose: 76.2 kg*nmol/mL/mmol
[2]; 500 mg/kg PO
  Cmax/Dose: 39.9 kg*nmol/mL/mmol
[2]; 1.5 mg/kg
  AUC(0-inf): 6.58 µM·h
  Cmax: 1.2 µM
  half-life: 17.9 h
[2]; 5 mg/kg
  AUC(0-inf): 28.6 µM·h
  Cmax: 7.1 µM
  half-life: 15.2 h
[2]; 15 mg/kg
  AUC(0-inf): 86.9 µM·h
  Cmax: 23.3 µM
  half-life: 20.3 h
[2]; 50 mg/kg
  half-life: 8.28 h
[2]; 150 mg/kg
  Tmax: 1 h
  half-life: 8.46 h
[2]; 500 mg/kg
  Tmax: 1 h
Junin virus; HeLa
  EC50: 0.02 µM
Junin virus; Huh-7
  EC50: 0.25 µM
Junin virus; Vero C1008
  EC50: 0.08 µM
A549 cells
  CC: >400 µM
MDCK cells
  CC: >380 µM
Lassa fever virus; HeLa
  EC50: 0.45 µM
Lassa fever virus; Huh-7
  EC50: 0.9 µM
Lassa fever virus; Vero C1008
  EC50: 0.36 µM
Measles
  EC50: 1.06 µM
BxPC-3 cells
  CC: >400 µM
A-204 cells
  CC: >400 µM
RD cells
  CC: >380 µM
[3]
  CC50: 228 µM
[4]; 5 mg/kg IV
  AUC0->∞/Dose: 5639.4 ± 234.2 h · kg · nmol/mL · mmol
  Cmax/Dose: 7525.0 ± 6050.9 kg · nmol/mL · mmol
[4]; 5 mg/kg PO
  AUC0->∞/Dose: 4869.4 ± 841.9 h · kg · nmol/mL · mmol
  Cmax/Dose: 1054.5 ± 118.8 kg · nmol/mL · mmol
  VD: 13.0 ± 1.6 L/kg
[4]; 50 mg/kg PO
  AUC0->∞/Dose: 2923.1 ± 209.6 h · kg · nmol/mL · mmol
  Cmax/Dose: 453.0 ± 51.2 kg · nmol/mL · mmol
  VD: 14.9 ± 1.9 L/kg
[4]; guinea pig, plasma, 5 mg/kg IV
  clearance: 3 mL/min/kg
[4]; guinea pig, 5 mg/kg IV, plasma
  AUC(0-inf): 108 ± 4.5 µM·h
  Cmax: 144 ± 115 µM
  Tmax: 0.083 h
  half-life: 9.3 ± 1.3 h
[4]; guinea pig, 5 mg/kg PO, plasma
  AUC(0-inf): 92.9 ± 16.1 µM·h
  Cmax: 20.1 ± 2.3 µM
  Tmax: 1.3 ± 0.5 h
  half-life: 20.1 ± 2.3 h
[4]; [9]
  AUC(0-inf): 558 ± 39.9 µM·h
  Cmax: 86.4 ± 9.8 µM
  Tmax: 1.8 ± 0.5 h
  half-life: 86.4 ± 9.8 h
Mayaro
  EC50: 2.81 µM
  EC90: 9.5 µM
BEAS-28 cells
  CC: >500 µM
Lujo; HeLa
  EC50: 0.07 µM
Lujo; Huh-7
  EC50: 1.32 µM
Lujo; Vero C1008
  EC50: 0.83 µM
Vero cells
  CC: >380 µM
Machupo; HeLa
  EC50: 0.07 µM
Machupo; Huh-7
  EC50: 0.31 µM
Machupo; Vero C1008
  EC50: 1.49 µM
RAW264.7 cells
  CC: >100 µM
Enterovirus-68
  EC90: 1.06 µM
EEEV
  EC90: 1.79 µM
IEC-6 cells
  CC: >400 µM
Poliovirus
  EC90: 3.8 µM
CEM cells
  CC: 107 µM
Huh-7 cells
  CC: >400 µM
BHK-T7 cells
  CC: >500 µM
MA-104 cells
  CC: >380 µM
[5]
  CC50: 77 µM
MDCK/Gal* cells
  CC: 444 µM
H9c2 cells
  CC: >400 µM
Pichinde virus
  EC90: 0.32 µM
HG23 cells
  CC: 100 µM

## O=c1ccn([C@@H]2O[C@](F)(CO)[C@@H](O)[C@H]2O)c(=O)[nH]1 [EIDD-2749]
In vitro
  CC50: > 50 µM
SARS-CoV-2
  EC50: 1.9 µM
MERS
  EC50: 5.7 µM
MERS; Middle East respiratory syndrome-related coronavirus, Vero 76
  EC90: 9.5 µM
SARS
  EC50: 14.1 µM
HCoV-alpha 229E
  EC50: 1.67 µM
  EC90: 9.5 µM
HCoV-beta OC43
  EC50: 1.06 µM
  EC90: 2.85 µM

## O=c1ccn([C@@H]2O[C@](F)(COP3(=O)OCc4ccccc4O3)[C@@H](O)[C@H]2O)c(=O)[nH]1 (stereo partly shown) [EIDD-02838]
[6]
  half-life: 7 min
[6]; EIDD-2749 formed
  max [2749]: 0.0347 µM
[7]
  half-life: 0.12 h
[7]; EIDD-2749 formed
  max [2749]: 0.130 µM
Plasma stability, rat
  half-life: <1 min
Plasma stability, rat; EIDD-2749 formed
  max [2749]: 0.0341 µM
[8]
  half-life: 8 min
[8]; EIDD-2749 formed
  max [2749]: 0.218 µM
Plasma stability, human; 37° C
  half-life: 0.2 h
Plasma stability, human; EIDD-2749 formed
  max [2749]: 0.0521 µM
Plasma stability, mouse
  half-life: 1 min
Plasma stability, mouse; EIDD-2749 formed
  max [2749]: 0.0216 µM

## CC(C)C(=O)OC[C@@]1(F)OC(n2ccc(=O)[nH]c2=O)C(O)[C@@H]1O (stereo partly drawn) [EIDD-2947, [(2S, 3S)-5-(2,4-dioxopyrimidin-1-yl)-2-fluoro-3,4-dihydroxy-tetrahydrofuran-2-yl]methyl 2-methylpropanoate]
[7]
  half-life: 0.733 h
